Results taken from ChEMBL document CHEMBL3352254, “Inhibitors of HGFA, Matriptase, and Hepsin Serine Proteases: A Nonkinase Strategy to Block Cell Signaling in Cancer” (ACS Med Chem Lett, 2014).
Residues, ends and D or L forms follow the SMILES beside them.

Columns and labels:
[1] = target: T1, Suppressor of tumorigenicity 14 protein (Homo sapiens, UniProt Q9Y5Y6); test: Inhibition of matriptase (unknown origin) using Boc-QAR-AMC as substrate by fluorescence assay
T1 sequence (Q9Y5Y6 whole entry): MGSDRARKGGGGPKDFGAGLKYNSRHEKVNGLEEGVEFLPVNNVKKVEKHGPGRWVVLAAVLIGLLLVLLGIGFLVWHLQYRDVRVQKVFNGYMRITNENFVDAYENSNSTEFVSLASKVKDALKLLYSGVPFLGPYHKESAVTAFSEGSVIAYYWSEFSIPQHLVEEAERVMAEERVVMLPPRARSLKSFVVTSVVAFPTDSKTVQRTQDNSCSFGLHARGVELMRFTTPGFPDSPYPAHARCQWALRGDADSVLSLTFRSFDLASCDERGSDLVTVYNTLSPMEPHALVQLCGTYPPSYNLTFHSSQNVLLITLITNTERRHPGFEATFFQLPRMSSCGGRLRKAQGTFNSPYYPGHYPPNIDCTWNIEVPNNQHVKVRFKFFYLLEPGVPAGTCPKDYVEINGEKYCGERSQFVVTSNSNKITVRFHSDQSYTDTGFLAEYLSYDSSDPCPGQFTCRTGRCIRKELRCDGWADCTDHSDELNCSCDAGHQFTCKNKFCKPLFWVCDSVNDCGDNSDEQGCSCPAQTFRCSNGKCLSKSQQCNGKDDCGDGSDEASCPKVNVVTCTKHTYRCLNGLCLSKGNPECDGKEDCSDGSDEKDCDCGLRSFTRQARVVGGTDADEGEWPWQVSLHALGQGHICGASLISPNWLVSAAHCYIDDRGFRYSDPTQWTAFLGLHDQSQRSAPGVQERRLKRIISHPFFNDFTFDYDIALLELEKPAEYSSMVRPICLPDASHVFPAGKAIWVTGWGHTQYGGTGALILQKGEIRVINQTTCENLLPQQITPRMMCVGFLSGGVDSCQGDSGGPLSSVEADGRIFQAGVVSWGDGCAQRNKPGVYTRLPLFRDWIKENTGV

[2] = target: T2, Hepatocyte growth factor activator serine protease (Homo sapiens, UniProt Q04756); test: (§1) Inhibition of HGFA in human MDA-MB-231 cells assessed as inhibition of c-MET phosphorylation after 15 mins by immunoblotting; type: cell-based
T2 sequence (Q04756 whole entry): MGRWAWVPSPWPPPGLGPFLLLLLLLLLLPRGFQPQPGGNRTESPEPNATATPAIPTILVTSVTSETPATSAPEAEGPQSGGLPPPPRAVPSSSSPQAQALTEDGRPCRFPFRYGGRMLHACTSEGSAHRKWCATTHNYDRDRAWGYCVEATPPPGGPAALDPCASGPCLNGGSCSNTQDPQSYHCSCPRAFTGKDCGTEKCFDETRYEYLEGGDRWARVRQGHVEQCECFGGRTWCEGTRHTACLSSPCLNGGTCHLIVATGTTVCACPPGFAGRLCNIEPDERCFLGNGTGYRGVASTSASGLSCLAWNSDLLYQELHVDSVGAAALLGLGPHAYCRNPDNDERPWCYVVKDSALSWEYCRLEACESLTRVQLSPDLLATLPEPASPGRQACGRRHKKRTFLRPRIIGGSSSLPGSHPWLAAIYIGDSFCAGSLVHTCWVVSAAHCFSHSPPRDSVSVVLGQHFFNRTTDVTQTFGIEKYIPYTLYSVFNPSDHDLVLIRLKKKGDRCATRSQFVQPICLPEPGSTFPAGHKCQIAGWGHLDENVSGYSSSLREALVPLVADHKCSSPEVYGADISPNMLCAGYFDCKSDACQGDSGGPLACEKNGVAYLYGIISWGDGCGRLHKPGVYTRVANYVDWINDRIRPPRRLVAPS

Homo sapiens [3] = species on record: Homo sapiens; test: Ratio of Ki for matriptase (unknown origin) to Ki for recombinant HGFA (unknown origin)
Homo sapiens [4] = species on record: Homo sapiens; test: Ratio of Ki for matriptase (unknown origin) to Ki for recombinant hepsin (unknown origin)
[5] = target: T3, Hepatocyte growth factor activator serine protease (Homo sapiens) (UniProt Q04756); test: Inhibition of recombinant HGFA (unknown origin)-mediated proteolytic activation of pro-MSP after 1 hr by immunoblotting
T3 sequence (whole entry): T2 sequence (Q04756 whole entry)

[6] = target: T3, Hepatocyte growth factor activator serine protease (Homo sapiens); test: Inhibition of recombinant HGFA (unknown origin)-mediated proteolytic activation of pro-HGF after 1 hr by immunoblotting
[7] = target: T3, Hepatocyte growth factor activator serine protease (Homo sapiens); test: as §1; type: cell-based
Serine protease hepsin = Serine protease hepsin (Homo sapiens, UniProt P05981); test: Inhibition of recombinant hepsin (unknown origin) using Boc-QAR-AMC as substrate by fluorescence assay
Serine protease hepsin, sequence (P05981 1-162 limits assumed): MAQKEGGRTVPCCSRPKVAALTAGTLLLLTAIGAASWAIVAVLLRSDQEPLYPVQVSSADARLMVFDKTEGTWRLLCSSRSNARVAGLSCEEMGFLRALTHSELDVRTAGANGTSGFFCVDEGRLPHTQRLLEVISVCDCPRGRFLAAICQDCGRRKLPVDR
Serine protease hepsin, sequence (P05981 163-417 limits assumed): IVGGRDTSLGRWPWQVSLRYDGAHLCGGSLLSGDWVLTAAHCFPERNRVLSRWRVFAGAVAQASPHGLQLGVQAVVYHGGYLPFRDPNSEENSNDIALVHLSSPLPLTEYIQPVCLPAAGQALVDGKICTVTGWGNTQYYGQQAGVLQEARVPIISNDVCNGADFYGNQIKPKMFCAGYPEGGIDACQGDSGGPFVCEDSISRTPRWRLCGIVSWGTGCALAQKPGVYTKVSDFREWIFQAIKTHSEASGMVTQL

Compound	Ki [1] [nM]	EC50 [2] [nM]	inhibition [5]	inhibition [6]	also measured
CC(=O)N[C@@H](CCCCN)C(=O)N[C@@H](Cc1cnc[nH]1)C(=O)N[C@@H](CC(C)C)C(=O)N[C@@H](CCCNC(=N)N)C(=O)c1nccs1	22				
N=C(N)c1ccc2cc(OC(=O)c3ccc(N=C(N)N)cc3)ccc2c1 [NAFAMOSTAT]		490			
CC(=O)N[C@@H](CC(C)C)C(=O)N[C@@H](CC(C)C)C(=O)N[C@H](C=O)CCCNC(=N)N					Ratio Ki (Homo sapiens [3]): 3; Ratio Ki (Homo sapiens [4]): 3
CC(=O)N[C@@H](CCCCN)C(=O)N[C@@H](CCCNC(=N)N)C(=O)N[C@@H](CC(C)C)C(=O)N[C@@H](CCCNC(=N)N)C(=O)c1nccs1			Dose-dependent effect	Dose-dependent effect	inhibition [7]: Dose-dependent effect
CC(C)C[C@H](NC(=O)[C@H](CCC(N)=O)NC(=O)[C@@H](N)CCCCN)C(=O)N[C@@H](CCCNC(=N)N)C(=O)O (H-KQLR-OH)		3100			
CC(=O)N[C@@H](CO)C(=O)N[C@@H](CCCNC(=N)N)C(=O)N[C@@H](CC(C)C)C(=O)N[C@@H](CCCNC(=N)N)C(=O)c1nccs1			Dose-dependent effect		
CC(=O)N[C@@H](CCCCN)C(=O)N[C@@H](CCC(N)=O)C(=O)N[C@@H](CC(C)C)C(=O)N[C@@H](CCCNC(=N)N)C(=O)c1nccs1	0.92		Dose-dependent effect	Dose-dependent effect	Ratio Ki (Homo sapiens [4]): 200; Ki (Serine protease hepsin): 0.22 nM
CC(C)C[C@H](NC(=O)[C@H](CCCNC(=N)N)NC(=O)[C@@H](N)CCCCN)C(=O)N[C@@H](CCCNC(=N)N)C(=O)O (H-KRLR-OH)		180			
CC(=O)N[C@@H](Cc1c[nH]c2ccccc12)C(=O)N[C@@H](CCCNC(=N)N)C(=O)N[C@@H](CC(C)C)C(=O)N[C@@H](CCCNC(=N)N)C(=O)c1nccs1			Dose-dependent effect	Dose-dependent effect	
CC(=O)N[C@@H](Cc1c[nH]c2ccccc12)C(=O)N[C@@H](CCC(N)=O)C(=O)N[C@@H](CC(C)C)C(=O)N[C@@H](CCCNC(=N)N)C(=O)c1nccs1	32				
